Data: PubChem BioAssay AID2060912 (Molecular Pharmacology Branch, DTP, NCI, 2025)
Where “and” joins values, the source holds several entries; their conditions need not be identical. Equal entries are not always repeated.

System: HUVEC/MSC spheroids viability
Assay: Human HUVEC/MSC cell line growth inhibition [KRAS2];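 as to viability, T/C: percent of DMSO vehicle control luminescence so 100% = untreated viability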
Conditions: for viability, T/C: stronger effect = lower value
Excerpt: Multicellular complex tumor spheroid response to RAS pathway inhibitors in combination with a targeted agents in patient-derived cell lines with oncogenic KRAS variants from multiple cancer types
A high-throughput screen of multi-cell type tumor spheroids was designed to identify active combinations of targeted small molecules and KRAS pathway inhibitors. Complex spheroids include a stromal component modeled by human endothelial cells (HUVEC) and fibroblasts modeled by human mesenchymal stem cells (MSCs). The concentration ranges selected for each drug and investigational agent were based upon clinically achievable concentrations if the clinical Cmax of the agent was known. * [This particular assayID is a followup dataset requested by reviewers of the manuscript. It is a test of the HUVEC and MSC without the tumor cells, and was conducted using different drug plates and a different plate layout.]
Compounds. The drugs and investigational agents: BI-3406 (NSC825286), BAY-293 (NSC824723), batoprotafib (TNO155; NSC825523), sotorasib (AMG 510; NSC818433), MRTX1257 (NSC819558), elimusertib (BAY 1895344; NSC800525), molibresib (GSK525762; NSC774829), temuterkib (LY3214996; NSC803410), venetoclax (NSC766270), alisertib (NSC759677), olaparib (NSC753686), talazoparib (NSC767125), erdafitinib (NSC781556), ipatasertib (NSC767898), cabozantinib (NSC761068), nintedanib (NSC756659), abemaciclib (NSC768073), docetaxel (NSC628503), trametinib (NSC758246), and sapanisertib (NSC764658) were obtained from the National Cancer Institute (NCI) Developmental Therapeutics Program Chemical Repository. The FDA-approved anticancer drug set is available from the Developmental Therapeutics Program. […] The stock solutions were prepared in dimethyl sulfoxide (DMSO, Sigma-Aldrich, St. Louis, MO, cat. D2650) at 800-fold the tested concentration and stored at -70 degrees C prior to their use. All drugs and investigational agents were tested over a range starting from a high concentration at or near the clinical Cmax and decreasing in half-log increments. If the clinical Cmax for an agent had not been determined, the highest concentration tested was 10 microM.
Cell Culture. All cells were maintained in an incubator at 37 degrees C and 5% CO2 with 95% humidity. The PDC lines were cultured according to standard operating procedures established by the NCI PDMR (https://pdmr.cancer.gov/sops/default.htm). Briefly, all PDCs were thawed and cultured in Matrigel-coated flasks prepared with a working solution of 1X Ham's F-12 nutrient mix, without supplementation (Invitrogen, Waltham, MA, cat. 11765054), 100 U/mL penicillin-streptomycin (Invitrogen, cat. 15140122), and 2.5% Matrigel (Corning Inc., Corning, NY, cat. 354248) for the first three passages. All PDCs were cultured in complete DMEM/F-12 media containing advanced DMEM/F-12 (Invitrogen, cat. 12634028), 4.9% defined fetal bovine serum, heat inactivated (HyClone Laboratories Inc., Logan, UT, cat. SH30070.03HI), 389 ng/mL hydrocortisone (Sigma-Aldrich, cat. H4001), 9.7 ng/mL human EGF recombinant protein (Invitrogen, cat. PHG0313), 23.4 microg/mL adenine (Sigma-Aldrich, cat. A2786), 97.3 U/mL penicillin-streptomycin (Invitrogen, cat. 15140122), 1.9 mM L-glutamine (Invitrogen, cat. 25030081), and 9.7 microM Y-27632 dihydrochloride (Tocris Bioscience, Bristol, United Kingdom, cat. 1254). The PDCs were cultured in complete DMEM/F12 media without 9.7 microM Y-27632 dihydrochloride for at least two passages prior to the screen. The established cell line HOP-62 was cultured in RPMI 1640 medium, HEPES (Invitrogen, cat. 22400105) with 10% defined fetal bovine serum (HyClone Laboratories Inc., cat. SH30070.03) and 2 mM L-glutamine (Invitrogen, cat. 25030081). The pooled donor HUVEC were cultured in endothelial cell growth medium 2 (PromoCell, Heidelberg, Germany, cat. C-22011) and the hMSC were cultured in mesenchymal stem cell growth medium 2 (PromoCell, cat. C-28009). […]

[1] = compound alone, run of 05/05/2024

| Structure (SMILES) | viability, T/C (compound 0.0316 µM) | viability, T/C (compound 10 µM) | IC50 (curve of compound) | viability, T/C (compound 0.316 µM) | viability, T/C (compound 1 µM) | viability, T/C (compound 0.1 µM) | other results |
| --- | --- | --- | --- | --- | --- | --- | --- |
| C=CC(=O)N1CCN(c2nc(=O)n(-c3c(C)ccnc3C(C)C)c3nc(-c4c(O)cccc4F)c(F)cc23)C(C)C1 (stereo not drawn) | 99.5% [middle of 9 runs] | 117% [middle of 9 runs] |  |  |  |  | IC50 [1]: > 10 µM |
| C=CC(=O)N1CCN(c2nc(OCC3CCCN3C)nc3c2CCN(c2cccc4cccc(C)c24)C3)CC1CC#N (stereo not drawn) |  |  |  |  |  |  | viability, T/C (compound 0.03 µM): 94.9% [middle of 9 runs]; viability, T/C (compound 0.949 µM): 73.6% [middle of 9 runs]; viability, T/C (compound 3 µM): 80.8% [middle of 9 runs]; IC50 [1]: > 3 µM |
| CC(=O)Nc1cccc(-n2c(=O)n(C3CC3)c(=O)c3c(Nc4ccc(I)cc4F)n(C)c(=O)c(C)c32)c1 |  |  | 14.7 nM [middle of 5 runs] |  |  |  | viability, T/C (compound 94.9 pM): 110% [middle of 5 runs]; viability, T/C (compound 0.000949 µM): 118% [middle of 5 runs]; viability, T/C (compound 0.00949 µM): 71.8% [middle of 5 runs]; viability, T/C (compound 0.03 µM): 17.6% [middle of 5 runs] |
| CC(=O)OC12COC1CC(O)C1(C)C(=O)C(O)C3=C(C)C(OC(=O)C(O)C(NC(=O)OC(C)(C)C)c4ccccc4)CC(O)(C(OC(=O)c4ccccc4)C21)C3(C)C (stereo not drawn) |  |  | < 0.00949 µM |  |  |  | viability, T/C (compound 0.00949 µM): 45.1% [middle of 5 runs]; viability, T/C (compound 0.03 µM): 44.2% [middle of 5 runs]; viability, T/C (compound 0.0949 µM): 47.2% [middle of 5 runs]; viability, T/C (compound 0.3 µM): 47.1% [middle of 4 runs]; viability, T/C (compound 0.949 µM): 47.9% [middle of 5 runs]; viability, T/C (compound 3 µM): 58.1% [middle of 5 runs] |
| CC(C)NCC(C(=O)N1CCN(c2ncnc3c2C(C)CC3O)CC1)c1ccc(Cl)cc1 (stereo not drawn) |  | 51.3% [middle of 5 runs] | > 10 µM and 2.61 µM and 9.3 µM | 83.5% [middle of 5 runs] | 71.7% [middle of 5 runs] |  |  |
| CC(C)n1nc(-c2ccc3oc(N)nc3c2)c2c(N)ncnc21 | 47.5% [middle of 5 runs] |  |  |  |  | 43.9% [middle of 5 runs] | viability, T/C (compound 0.001 µM): 68.3% [middle of 5 runs]; viability, T/C (compound 0.00316 µM): 51.2% [middle of 5 runs]; viability, T/C (compound 0.01 µM): 47.9% [middle of 5 runs] |
| CC1(C)CCC(CN2CCN(c3ccc(C(=O)NS(=O)(=O)c4ccc(NCC5CCOCC5)c([N+](=O)[O-])c4)c(Oc4cnc5[nH]ccc5c4)c3)CC2)=C(c2ccc(Cl)cc2)C1 | 90.6% [middle of 5 runs] | 4.4% [middle of 5 runs] | 4.56 µM [middle of 4 runs] | 83% [middle of 5 runs] | 90.2% [middle of 5 runs] | 95.1% [middle of 5 runs] | viability, T/C (compound 3.16 µM): 69% [middle of 5 runs] |
| CC1COCCN1c1cc(-c2ccnn2C)c2ccnc(-c3ccn[nH]3)c2n1 (stereo not drawn) |  |  | > 3 µM and 1.95 µM and 2.38 µM |  |  |  | viability, T/C (compound 0.03 µM): 80.5% [middle of 5 runs]; viability, T/C (compound 0.0949 µM): 87.6% [middle of 5 runs]; viability, T/C (compound 0.3 µM): 73.6% [middle of 5 runs]; viability, T/C (compound 0.949 µM): 56.7% [middle of 5 runs]; viability, T/C (compound 3 µM): 47.6% [middle of 5 runs] |
| CC1OCC2(CCN(c3cnc(Sc4ccnc(N)c4Cl)c(N)n3)CC2)C1N (stereo not drawn) |  |  | > 10 µM |  |  |  | IC50 [1]: > 10 µM |
| CCN1CCN(Cc2ccc(Nc3ncc(F)c(-c4cc(F)c5nc(C)n(C(C)C)c5c4)n3)nc2)CC1 | 87.7% [middle of 5 runs] |  | > 1 µM | 99.4% [middle of 5 runs] |  | 83.9% [middle of 5 runs] | viability, T/C (compound 0.01 µM): 86.6% [middle of 5 runs] |
| CCNC(=O)CC1N=C(c2ccc(Cl)cc2)c2cc(OC)ccc2-n2c(C)nnc21 (stereo not drawn) | 87.2% [middle of 5 runs] |  | > 10 µM |  |  | 86.6% [middle of 5 runs] |  |
| CN(C)C/C=C/C(=O)Nc1cc2c(Nc3ccc(F)c(Cl)c3)ncnc2cc1O[C@H]1CCOC1 | 85.3% [middle of 5 runs] |  | > 0.1 µM |  |  |  | viability, T/C (compound 0.000316 µM): 99.9% [middle of 5 runs]; viability, T/C (compound 0.001 µM): 91% [middle of 5 runs]; viability, T/C (compound 0.00316 µM): 90.5% [middle of 5 runs] |
| CNCc1ccccc1-c1csc(C(C)Nc2nc(C)nc3cc(OC)c(OC)cc23)c1 (stereo not drawn) | 88.4% [middle of 9 runs] | 0.41% [middle of 8 runs] |  | 84.6% [middle of 9 runs] |  |  | IC50 [1]: 5.29 µM [middle of 8 runs] |
| COC(=O)c1ccc2c(C(=Nc3ccc(N(C)C(=O)CN4CCN(C)CC4)cc3)c3ccccc3)c(O)[nH]c2c1 |  | 0.37% [middle of 5 runs] | 1.96 µM [middle of 5 runs] |  | 58.1% [middle of 5 runs] |  | viability, T/C (compound 3.16 µM): 39.6% [middle of 5 runs] |
| COc1cc(Nc2ncc3c(n2)-c2ccc(Cl)cc2C(c2c(F)cccc2OC)=NC3)ccc1C(=O)O |  | 61.2% [middle of 5 runs] | > 10 µM | 96% [middle of 5 runs] | 94% [middle of 5 runs] | 90.3% [middle of 5 runs] | viability, T/C (compound 3.16 µM): 104% [middle of 5 runs] |
| COc1cc(OC)cc(N(CCNC(C)C)c2ccc3ncc(-c4cnn(C)c4)nc3c2)c1 | 60.9% [middle of 5 runs] | 34.8% [middle of 5 runs] | 66.1 nM [middle of 5 runs] | 38.2% [middle of 5 runs] | 38.3% [middle of 5 runs] | 45.4% [middle of 5 runs] | viability, T/C (compound 3.16 µM): 41.8% [middle of 5 runs] |
| COc1cc2nc(C)nc(NC(C)c3cc(N)cc(C(F)(F)F)c3)c2cc1OC1CCOC1 (stereo not drawn) | 99.5% [middle of 9 runs] | 66.7% [middle of 9 runs] |  | 97.3% [middle of 9 runs] |  |  | IC50 [1]: > 10 µM |
| COc1cc2nccc(Oc3ccc(NC(=O)C4(C(=O)Nc5ccc(F)cc5)CC4)cc3)c2cc1OC | 76.8% [middle of 5 runs] | 36% [middle of 5 runs] | 6.87 µM [middle of 5 runs] | 70.8% [middle of 5 runs] | 71.4% [middle of 5 runs] | 79% [middle of 5 runs] |  |
| Cn1nccc1Nc1nccc(-c2cc3c(s2)C(C)(C)N(CCN2CCOCC2)C3=O)n1 | 91.1% [middle of 5 runs] | 5.24% [middle of 5 runs] | 2.65 µM [middle of 5 runs] |  | 99.3% [middle of 5 runs] | 105% [middle of 5 runs] | viability, T/C (compound 3.16 µM): 40.5% [middle of 5 runs] |
| Cn1ncnc1[C@H]1c2n[nH]c(=O)c3cc(F)cc(c23)N[C@@H]1c1ccc(F)cc1 | 88.1% [middle of 5 runs] |  | > 0.1 µM |  |  | 84.2% [middle of 5 runs] | viability, T/C (compound 0.001 µM): 87.9% [middle of 5 runs]; viability, T/C (compound 0.00316 µM): 83.8% [middle of 5 runs]; viability, T/C (compound 0.01 µM): 90.7% [middle of 5 runs] |
| O=C(c1cc(Cc2n[nH]c(=O)c3ccccc23)ccc1F)N1CCN(C(=O)C2CC2)CC1 |  | 95.3% [middle of 5 runs] | > 10 µM | 90.8% [middle of 5 runs] | 89.3% [middle of 5 runs] |  |  |
